# Reference: paper PMC6222450, “Computer-Aided Studies for Novel Arylhydantoin 1,3,5-Triazine Derivatives as 5-HT6 Serotonin Receptor Ligands with Antidepressive-Like, Anxiolytic and Antiobesity Action In Vivo” (Molecules : A Journal of Synthetic Chemistry and Natural …, 2018)
# “And” between values parts separate entries of the source, which are not always exact repeats. Equal entries are not always repeated.
# Assays:
# [1] = target: T1, human serotonin 5-HT6R (Homo sapiens, UniProt P50406); assay: Radioligand binding assay, 5-HT6R, [3H]-LSD displacement
# T1 construct: expressed in transfected cells; host or cells: HEK-293
# Description: Five selective radioligands were employed (Table 1).
# Radioligand binding assays were used to determine the affinity of the synthesized compounds for human serotonin 5-HT6R, which were stably expressed in HEK-293 cells. […] Each compound was tested in triplicate at 7 to 8 different concentrations (10^−11 to 10^−4 M). The inhibition constants (Ki) were calculated using the Cheng–Prusoff equation [40], and the results are expressed as the mean of at least two independent experiments.
# [2] = target: T2, 5-HT7bR (Homo sapiens, UniProt P34969); assay: Radioligand binding assay, 5-HT7bR, [3H]-5-CT; conditions: human 5-HT7b receptor stably expressed in HEK-293 cells; read-out: Ki 5-HT7 [3H]-5-CT
# T2 construct: expressed in transfected cells; host or cells: HEK-293
# [3] = tested on: male Wistar rats; assay: Vogel conflict drinking test; type: in vivo, rat; conditions: 3 mg/kg i.p. 60 min before test, 5 min session, p < 0.05
# Description: (§1) The experiments were performed on male Wistar rats (200–220 g—behavioural test or 170–190 g—metabolic assay) obtained from an accredited animal facility at the Jagiellonian University Medical College, Poland. The animals were housed in a group of four in a controlled environment (ambient temperature 21 ± 2 °C; relative humidity 50–60%; 12 h light/dark cycles (lights on at 8:00). Standard laboratory food (LSM-B) and filtered water were freely available (behavioral tests). Animals were assigned randomly to treatment groups. All the experiments were performed by two observers unaware of the treatment applied between 9:00 and 14:00 on separate groups of animals. All animals were used only once.
# (§2) Compounds were suspended in 1% Tween 80 immediately before administration in a volume of 2 mL/kg—behavioral tests or 1 mL/kg—body weight measures. Compounds were administered intraperitoneally (i.p.) 60 min before testing—behavioral tests. Control animals received vehicle (1% Tween 80) according to the same schedule.
# The testing procedure was based on a method of Vogel et al. and used the Anxiety Monitoring System “Vogel test” produced by TSE Systems (Germany). […] The number of licks and the number of shocks received during a 5 min experimental session were recorded automatically.
# [4] = tested on: male Wistar rats; assay: Forced swim test (FST); type: in vivo, rat; conditions: i.p. 60 min before test, 5 min observation, p < 0.05
# Description: as §1, §2
# The experiment was carried out according to the method of Porsolt et al.. […] On the following day (24 h later), the rats were replaced in the cylinder and the total duration of immobility was recorded during the whole 5-min test period. […]
# [5] = target: T3, dopaminergic D2LR (Homo sapiens, UniProt P14416); assay: Radioligand binding assay, D2LR, [3H]-Raclopride; conditions: human D2L receptor stably expressed in HEK-293 cells; read-out: Ki D2 [3H]-Raclopride
# T3 construct: expressed in transfected cells; host or cells: HEK-293
# [6] = Body weight of non-obese rats fed only standard diet; type: in vivo, rat; conditions: rats consuming standard feed, 5 mg/kg b.w. i.p.
# Description: Male Wistar rats (170–190 g) were housed in a pair in plastic cages in constant temperature facilities exposed to a light-dark cycle. Control group (standard diet + vehicle) received vehicle (1% Tween 80, intraperitoneally), while the test group (standard diet + 6 or standard diet + 26) was injected (intraperitoneally) with 6 or 26 at the dose of 5 mg/kg b.w. dissolved in 1% Tween 80 (1 mL/kg). Body weights were measured daily immediately prior to administration of drugs.
# T1 sequence (P50406 whole entry): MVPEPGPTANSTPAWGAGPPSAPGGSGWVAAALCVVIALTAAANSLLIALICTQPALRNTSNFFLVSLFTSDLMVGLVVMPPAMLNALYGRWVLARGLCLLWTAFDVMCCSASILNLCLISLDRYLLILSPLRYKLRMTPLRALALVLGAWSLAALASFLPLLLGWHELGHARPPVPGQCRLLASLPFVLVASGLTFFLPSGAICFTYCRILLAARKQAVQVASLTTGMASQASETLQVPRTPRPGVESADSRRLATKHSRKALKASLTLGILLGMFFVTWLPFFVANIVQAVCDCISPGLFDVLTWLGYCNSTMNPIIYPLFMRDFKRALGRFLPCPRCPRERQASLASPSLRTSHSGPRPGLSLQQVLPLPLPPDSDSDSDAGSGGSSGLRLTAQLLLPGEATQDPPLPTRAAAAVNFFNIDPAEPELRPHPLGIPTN
# T2 sequence (P34969 1-432 limits assumed): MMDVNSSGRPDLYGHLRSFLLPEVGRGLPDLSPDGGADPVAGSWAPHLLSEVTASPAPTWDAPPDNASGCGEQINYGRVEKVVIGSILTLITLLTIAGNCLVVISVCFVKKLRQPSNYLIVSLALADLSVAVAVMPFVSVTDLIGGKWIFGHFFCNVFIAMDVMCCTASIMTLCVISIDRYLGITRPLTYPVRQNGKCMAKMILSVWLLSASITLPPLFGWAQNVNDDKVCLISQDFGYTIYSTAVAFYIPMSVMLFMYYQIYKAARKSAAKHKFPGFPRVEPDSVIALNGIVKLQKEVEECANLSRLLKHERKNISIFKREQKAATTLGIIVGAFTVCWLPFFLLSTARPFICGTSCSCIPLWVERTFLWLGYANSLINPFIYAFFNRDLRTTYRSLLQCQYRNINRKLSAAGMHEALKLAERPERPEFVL
# T3 sequence (P14416 whole entry): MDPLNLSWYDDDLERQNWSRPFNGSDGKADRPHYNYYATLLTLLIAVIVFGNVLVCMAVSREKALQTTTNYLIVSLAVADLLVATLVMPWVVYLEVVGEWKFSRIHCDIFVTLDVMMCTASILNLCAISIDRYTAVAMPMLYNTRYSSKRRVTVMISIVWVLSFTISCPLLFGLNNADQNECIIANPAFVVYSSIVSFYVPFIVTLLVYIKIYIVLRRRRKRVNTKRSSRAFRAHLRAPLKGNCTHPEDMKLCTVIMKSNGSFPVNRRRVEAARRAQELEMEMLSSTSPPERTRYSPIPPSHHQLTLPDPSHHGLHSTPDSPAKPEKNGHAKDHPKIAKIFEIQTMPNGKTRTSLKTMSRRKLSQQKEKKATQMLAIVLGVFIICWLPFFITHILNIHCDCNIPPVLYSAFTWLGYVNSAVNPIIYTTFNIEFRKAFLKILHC
structure (smiles),measurement,setting,value
"CN1CCN(c2nc(N)nc(CN3C(=O)NC(C)(c4ccc5ccccc5c4)C3=O)n2)CC1 (centres unmarked) [Compound 26, 3-((4-Amino-6-(4-methylpiperazin-1-yl)-1,3,5-triazin-2-yl)methyl)-5-methyl-5-(naphthalen-2-yl)imidazolidine-2,4-dione]",selectivity towards competitive G-protein coupled receptors,"[1]; 5-HT6R vs 5-HT1A, 5-HT2A, 5-HT7, D2",6–197 fold
same,selectivity over 5-HT7R,[1]; 5-HT6R vs 5-HT7R,6 fold
same,Ki,"[1]; human receptor stably expressed in HEK-293 cells, mean of at least two independent experiments, read-out: Ki 5-HT6 [3H]-LSD",< 200 nM and 87 nM
same,Ki,[2],514 nM
same,increase of number of accepted shocks,[3],76%
same,decrease of immobility time vs. vehicle treated group,[4],about 20%
same,Ki,[5],4250 nM
same,effect on body weight,[6],No effects on body weight
